Source: PubChem BioAssay AID330 (DTP/NCI, 2004)
Several values for one entry are separate records, joined by “and”; a condition that tells them apart may be missing. Equal values may be shown once. Inconclusive results and toxic doses are left out. Rule for the calls: active = survival T/C of 150% or more; inactive = T/C below 125% in these data.

Test system: P388 leukemia ip, CD2F1 mice, survival T/C
Assay: NCI In Vivo Anticancer Drug Screen. Data for tumor model P388 Leukemia (intraperitoneal) in CD2F1 (CDF1) mice
Settings: endpoint: median survival time, higher = longer survival
Method in brief: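 Mice carrying the transplanted tumor received test compound or vehicle. Survival was recorded in each group, and the value is the treated-group measurement divided by that of the vehicle-treated control group.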

[1] = dose: 100.0 mg/kg/injection, schedule: Q01DX001 (ip), vehicle: Klucel (hydroxypropylcellulose) (HPC)
[2] = dose: 200.0 mg/kg/injection, schedule: Q01DX001 (ip), vehicle: Klucel (hydroxypropylcellulose) (HPC)
[3] = dose: 400.0 mg/kg/injection, schedule: Q01DX001 (ip), vehicle: Klucel (hydroxypropylcellulose) (HPC)
[4] = dose: 25.0 mg/kg/injection, schedule: Q01DX009 (ip), vehicle: saline with Tween-80
[5] = dose: 50.0 mg/kg/injection, schedule: Q01DX009 (ip), vehicle: saline with Tween-80
[6] = dose: 50.0 mg/kg/injection, schedule: Q01DX009 (ip), vehicle: saline
[7] = dose: 100.0 mg/kg/injection, schedule: Q01DX009 (ip), vehicle: saline
[8] = dose: 60.0 mg/kg/injection, schedule: Q01DX005 (ip), vehicle: Klucel (hydroxypropylcellulose) (HPC)
[9] = dose: 120.0 mg/kg/injection, schedule: Q01DX005 (ip), vehicle: Klucel (hydroxypropylcellulose) (HPC)
[10] = dose: 50.0 mg/kg/injection, schedule: Q01DX005 (ip), vehicle: saline with Tween-80
[11] = dose: 100.0 mg/kg/injection, schedule: Q01DX005 (ip), vehicle: saline with Tween-80
[12] = dose: 200.0 mg/kg/injection, schedule: Q01DX005 (ip), vehicle: saline with Tween-80

Measured: T/C

COC1CC2C=CC3C4OC2(/C(C)=C/C(C)C(C(C)O)OC1=O)C3C(O)C(C)C4OC(=O)c1ccc[nH]1 (stereo unspecified)
inactive: dose: 12.5 mg/kg/injection, schedule: Q01DX005 (ip), vehicle: Klucel (hydroxypropylcellulose) (HPC) 104 % of control | dose: 25.0 mg/kg/injection, schedule: Q01DX005 (ip), vehicle: Klucel (hydroxypropylcellulose) (HPC) 99 % of control | dose: 50.0 mg/kg/injection, schedule: Q01DX005 (ip), vehicle: Klucel (hydroxypropylcellulose) (HPC) 95 % of control | dose: 100.0 mg/kg/injection, schedule: Q01DX005 (ip), vehicle: Klucel (hydroxypropylcellulose) (HPC) 99 % of control | dose: 200.0 mg/kg/injection, schedule: Q01DX005 (ip), vehicle: Klucel (hydroxypropylcellulose) (HPC) 98 % of control

NC(=S)N/N=C/c1c(-c2ccc(Cl)cc2)nc2sccn12
inactive: [1] 96 % of control | [2] 95 % of control | [3] 96 % of control

COC1=C(OC)C(=O)C(OC)=C(OC)C1=O
inactive: dose: 12.5 mg/kg/injection, schedule: Q01DX009 (ip), vehicle: saline with Tween-80 106 % of control | [4] 98 % of control | [5] 104 % of control

NC(=O)c1ccc([N+](=O)[O-])o1
inactive: dose: 12.5 mg/kg/injection, schedule: Q01DX009 (ip), vehicle: saline 99 % of control | dose: 25.0 mg/kg/injection, schedule: Q01DX009 (ip), vehicle: saline 100 % of control | [6] 95 % of control | [7] 108 % of control

CS(C)=NC(=Nc1ccc(Cl)cc1)c1ccccc1
inactive: [4] 95 % of control | [5] 106 % of control

CCN1C2OC3CCC2(C)C2C(OC)C4(O)C1C32C1CC2C(OC)CC4(O)C1C2O (stereo unspecified)
inactive: dose: 0.94 mg/kg/injection, schedule: Q01DX005 (ip), vehicle: saline + alcohol 106 % of control | dose: 1.88 mg/kg/injection, schedule: Q01DX005 (ip), vehicle: saline + alcohol 102 % of control | dose: 3.75 mg/kg/injection, schedule: Q01DX005 (ip), vehicle: saline + alcohol 108 % of control | dose: 7.5 mg/kg/injection, schedule: Q01DX005 (ip), vehicle: saline + alcohol 102 % of control

COc1cccc(C2c3cc4c(cc3OC(C)(N3CCCC3)C2C)OCO4)c1OC (stereo unspecified)
inactive: [8] 99 % of control | [9] 88 % of control

CCCCNc1ncc(S(=O)(=O)Cc2ccc3c(c2)OCO3)c(N)n1
inactive: dose: 100.0 mg/kg/injection, schedule: Q04DX002 (ip), vehicle: saline 94 % of control | dose: 200.0 mg/kg/injection, schedule: Q04DX002 (ip), vehicle: saline 100 % of control | dose: 400.0 mg/kg/injection, schedule: Q04DX002 (ip), vehicle: saline 90 % of control

COc1ccccc1N=Cc1ccc(C=Nc2ccccc2OC)cc1
inactive: dose: 50.0 mg/kg/injection, schedule: Q01DX009 (ip), vehicle: Klucel (hydroxypropylcellulose) (HPC) 97 % of control | dose: 100.0 mg/kg/injection, schedule: Q01DX009 (ip), vehicle: Klucel (hydroxypropylcellulose) (HPC) 98 % of control | dose: 200.0 mg/kg/injection, schedule: Q01DX009 (ip), vehicle: Klucel (hydroxypropylcellulose) (HPC) 101 % of control and 88 % of control

NNc1cnc2ccccc2n1
inactive: dose: 1.88 mg/kg/injection, schedule: Q01DX009 (ip), vehicle: suspension in saline 93 % of control | dose: 18.8 mg/kg/injection, schedule: Q04DX003 (ip), vehicle: saline 101 % of control and 106 % of control | dose: 37.5 mg/kg/injection, schedule: Q01DX009 (ip), vehicle: suspension in saline 95 % of control | dose: 37.5 mg/kg/injection, schedule: Q04DX003 (ip), vehicle: saline 100 % of control and 103 % of control | dose: 75.0 mg/kg/injection, schedule: Q01DX009 (ip), vehicle: suspension in saline 90 % of control | dose: 75.0 mg/kg/injection, schedule: Q04DX003 (ip), vehicle: saline 100 % of control and 107 % of control

COc1ccc2c(c1)CCC1C2=NN=C2CCCC21 (stereo unspecified)
inactive: [1] 97 % of control | [2] 88 % of control | [3] 92 % of control

CCOc1cc2c(cc1C(C)c1cc(C(C)(C)C)c(O)c(C(C)(C)C)c1)OCO2 (stereo unspecified)
inactive: [10] 100 % of control | [11] 91 % of control | [12] 88 % of control

CC(C)c1nnc2cc3c(cc2c1N)oc1ccccc13
inactive: dose: 100.0 mg/kg/injection, schedule: Q04DX002 (ip), vehicle: saline with Tween-80 87 % of control | dose: 200.0 mg/kg/injection, schedule: Q04DX002 (ip), vehicle: saline with Tween-80 92 % of control | dose: 400.0 mg/kg/injection, schedule: Q04DX002 (ip), vehicle: saline with Tween-80 87 % of control

NC1=C(O)C(=O)C(c2c(Cl)cccc2Cl)O1 (stereo unspecified)
inactive: [8] 105 % of control | [9] 102 % of control | dose: 240.0 mg/kg/injection, schedule: Q01DX005 (ip), vehicle: Klucel (hydroxypropylcellulose) (HPC) 105 % of control

CCOP(=O)(OCC)C1CCCN2CCc3cc(OC)c(OC)cc3C12 (stereo unspecified)
inactive: [6] 91 % of control | [7] 98 % of control | dose: 200.0 mg/kg/injection, schedule: Q01DX009 (ip), vehicle: saline 95 % of control

O=C(O)CCC1(C(=O)O)NCCc2c1[nH]c1ccccc21 (stereo unspecified)
inactive: dose: 25.0 mg/kg/injection, schedule: Q01DX009 (ip), vehicle: suspension in saline 95 % of control | dose: 50.0 mg/kg/injection, schedule: Q01DX009 (ip), vehicle: suspension in saline 99 % of control | dose: 100.0 mg/kg/injection, schedule: Q01DX009 (ip), vehicle: suspension in saline 98 % of control

COC1=C(C(C2=C(OC)CC(C)(C)CC2=O)c2ccc3c(c2)OCO3)C(=O)CC(C)(C)C1
inactive: dose: 60.0 mg/kg/injection, schedule: Q01DX005 (ip), vehicle: saline with Tween-80 102 % of control | dose: 120.0 mg/kg/injection, schedule: Q01DX005 (ip), vehicle: saline with Tween-80 111 % of control | dose: 240.0 mg/kg/injection, schedule: Q01DX005 (ip), vehicle: saline with Tween-80 101 % of control

O=c1c(N2CCOCC2)c(N2CCOCC2)c1=O
inactive: dose: 100.0 mg/kg/injection, schedule: Q01DX001 (ip), vehicle: saline with Tween-80 100 % of control | dose: 200.0 mg/kg/injection, schedule: Q01DX001 (ip), vehicle: saline with Tween-80 95 % of control | dose: 400.0 mg/kg/injection, schedule: Q01DX001 (ip), vehicle: saline with Tween-80 90 % of control

Cc1cc2cc3c4c(nnc(NN)c4c2o1)-c1ccccc1CC3
inactive: dose: 3.75 mg/kg/injection, schedule: Q01DX005 (ip), vehicle: saline with Tween-80 99 % of control | dose: 7.5 mg/kg/injection, schedule: Q01DX005 (ip), vehicle: saline with Tween-80 101 % of control | dose: 15.0 mg/kg/injection, schedule: Q01DX005 (ip), vehicle: saline with Tween-80 99 % of control

COC(=O)c1c(C(=O)OC)c2c(C)nn3ccc1n23
inactive: dose: 25.0 mg/kg/injection, schedule: Q01DX005 (ip), vehicle: saline with Tween-80 96 % of control | [10] 96 % of control | [11] 98 % of control | [12] 93 % of control
